Experimental findings from ChEMBL document CHEMBL1141982, “A rate determining step change in the pre-steady state of acetylcholinesterase inhibitions by 1,n-alkane-di-N-butylcarbamates” (Bioorg Med Chem Lett, 2005) are described below.

In data set [1] the target is T1, Acetylcholinesterase (Homo sapiens, UniProt P22303). Put plainly: Kinetic constant (k2) for acetylcholinesterase.
Data set [2] deals with T1, Acetylcholinesterase. Put plainly: Ratio of k2/k-2 for acetylcholinesterase.
The target of data set [3] is T1, Acetylcholinesterase. Kind of data set: Kinetic constant (k-2) for acetylcholinesterase.
Data set [4] in a line: Carbamylation rate constant was determined.
The target of data set [5] is T1, Acetylcholinesterase. Put plainly: Dissociation constant for acetylcholinesterase.
In data set [6] the target is T1, Acetylcholinesterase. Put plainly: Inhibition constant for acetylcholinesterase.

T1 sequence (P22303 whole entry): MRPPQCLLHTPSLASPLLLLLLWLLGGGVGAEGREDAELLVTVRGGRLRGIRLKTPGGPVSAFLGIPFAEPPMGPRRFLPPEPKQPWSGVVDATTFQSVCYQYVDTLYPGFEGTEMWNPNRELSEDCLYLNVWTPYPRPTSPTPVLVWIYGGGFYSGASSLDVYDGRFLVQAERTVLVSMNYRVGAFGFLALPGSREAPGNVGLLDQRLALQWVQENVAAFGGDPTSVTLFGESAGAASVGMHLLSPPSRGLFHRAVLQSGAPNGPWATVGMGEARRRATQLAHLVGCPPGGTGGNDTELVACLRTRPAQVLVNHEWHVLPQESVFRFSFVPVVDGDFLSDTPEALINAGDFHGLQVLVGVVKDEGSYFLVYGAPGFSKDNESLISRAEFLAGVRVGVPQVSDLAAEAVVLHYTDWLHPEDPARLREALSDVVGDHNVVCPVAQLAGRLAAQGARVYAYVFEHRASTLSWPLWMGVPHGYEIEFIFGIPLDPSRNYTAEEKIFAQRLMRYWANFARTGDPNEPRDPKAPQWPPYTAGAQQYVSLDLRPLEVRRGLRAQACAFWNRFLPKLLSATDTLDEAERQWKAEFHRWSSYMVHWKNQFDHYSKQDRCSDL

For `CCCCNC(=O)OCCCCCCCCCCOC(=O)NCCCC`, the k2 at Acetylcholinesterase [1] was 4.6 10e-3 1/s. The Ratio on Acetylcholinesterase [2] stood at 2.3. The k-2 on Acetylcholinesterase [3] was 2 10e-3 1/s. Further, the kc in data set [4] is reported as 4.1 10e-3 1/s. Further, the Ks on Acetylcholinesterase [5] was 0.37 µM. Moreover, the affinity at Acetylcholinesterase [6], expressed as Ki, was 160 nM.

`CCCCNC(=O)OCCOC(=O)NCCCC`: the k2 on Acetylcholinesterase [1] was 2.8 10e-3 1/s. In addition, at Acetylcholinesterase [2], the Ratio came out at 8. In addition, the k-2 on Acetylcholinesterase [3] was 0.35 10e-3 1/s. The kc in data set [4] was 3 10e-3 1/s. At Acetylcholinesterase [5], the Ks was 2.9 µM. At Acetylcholinesterase [6], this molecule had a Ki of 360 nM.

For `CCCCNC(=O)OCCCCCOC(=O)NCCCC`, the k2 on Acetylcholinesterase [1] is 3.4 10e-3 1/s. In addition, the Ratio on Acetylcholinesterase [2] was 5.5. Besides, the k-2 at Acetylcholinesterase [3] is 0.62 10e-3 1/s. Besides, in data set [4], the kc is recorded as 3.3 10e-3 1/s. This molecule also registered a Ks at Acetylcholinesterase [5] of 1.4 µM. This molecule came in with a Ki at Acetylcholinesterase [6] of 250 nM.

In the case of `CCCCNC(=O)OCCCCCCCCCCCCCCCCOC(=O)NCCCC`, the k2 on Acetylcholinesterase [1] was 6.1 10e-3 1/s. Moreover, the Ratio on Acetylcholinesterase [2] worked out at 2. The k-2 at Acetylcholinesterase [3] was 3.1 10e-3 1/s. Further, the kc in data set [4] was 5.3 10e-3 1/s. Further, the Ks at Acetylcholinesterase [5] came to 0.34 µM. Moreover, affinity at Acetylcholinesterase [6] was put at a Ki of 170 nM.

For the molecule `CCCCNC(=O)OCCCCCCCCCCCCCCOC(=O)NCCCC`, the k2 on Acetylcholinesterase [1] was 5.4 10e-3 1/s. The Ratio at Acetylcholinesterase [2] worked out at 2.3. In addition, the k-2 on Acetylcholinesterase [3] is 2.4 10e-3 1/s. The kc in data set [4] is on record as 4.9 10e-3 1/s. Further, at Acetylcholinesterase [5], the Ks was 0.36 µM. Also, the affinity at Acetylcholinesterase [6], expressed as Ki, was 160 nM.

In the case of `CCCCNC(=O)OCCCCCO`, on Acetylcholinesterase [1], the k2 is 8.1 10e-3 1/s. Further, the Ratio at Acetylcholinesterase [2] worked out at 2. The k-2 on Acetylcholinesterase [3] was 5 10e-3 1/s. In data set [4], the kc is 3.5 10e-3 1/s. This molecule gave a Ks at Acetylcholinesterase [5] of 2.2 µM. The same molecule gave a Ki on Acetylcholinesterase [6] of 1400 nM.

Consider `CCCCNC(=O)OCCCCCCCCCCCCCCO`, for which the k2 on Acetylcholinesterase [1] is 5.3 10e-3 1/s. The Ratio at Acetylcholinesterase [2] was determined as 1.3. Moreover, the k-2 at Acetylcholinesterase [3] is 4 10e-3 1/s. The kc in data set [4] was 4.6 10e-3 1/s. The same molecule had a Ks on Acetylcholinesterase [5] of 0.45 µM. Also, at Acetylcholinesterase [6], the affinity corresponds to a Ki of 200 nM.

As to `CCCCNC(=O)OCCCCCCCCO`, the k2 at Acetylcholinesterase [1] is 7.2 10e-3 1/s. Also, the Ratio on Acetylcholinesterase [2] came out at 2.4. At Acetylcholinesterase [3], the k-2 was 3 10e-3 1/s. Besides, in data set [4], the kc was 3.6 10e-3 1/s. On Acetylcholinesterase [5], this molecule gave a Ks of 0.88 µM. The Ki on Acetylcholinesterase [6] came to 360 nM.

For the molecule `CCCCNC(=O)OCCCCCCCCCCCCO`, on Acetylcholinesterase [1], the k2 is 8.1 10e-3 1/s. The Ratio on Acetylcholinesterase [2] amounted to 2. The k-2 at Acetylcholinesterase [3] was 4 10e-3 1/s. Also, the kc in data set [4] is on record as 4.1 10e-3 1/s. Also, the Ks on Acetylcholinesterase [5] was 0.65 µM. Further, the Ki on Acetylcholinesterase [6] is 300 nM.

For `CCCCNC(=O)OCCCCCCCCOC(=O)NCCCC`, on Acetylcholinesterase [1], the k2 was 4.2 10e-3 1/s. Moreover, the Ratio at Acetylcholinesterase [2] is 2.6. Also, the k-2 on Acetylcholinesterase [3] was 1.6 10e-3 1/s. Further, the kc in data set [4] is given as 4 10e-3 1/s. Further, the Ks at Acetylcholinesterase [5] came to 0.39 µM. On Acetylcholinesterase [6], this molecule showed a Ki of 150 nM.

Take `CCCCNC(=O)OCCCCCCCCCCO`: the k2 at Acetylcholinesterase [1] is 7.6 10e-3 1/s. On Acetylcholinesterase [2], the Ratio amounted to 2.5. Besides, the k-2 on Acetylcholinesterase [3] was 3.1 10e-3 1/s. Further, the kc in data set [4] is reported as 3.9 10e-3 1/s. The Ks at Acetylcholinesterase [5] was found to be 0.52 µM. In addition, the Ki at Acetylcholinesterase [6] amounted to 200 nM.

Consider `CCCCNC(=O)OCCCCCCCCCCCCCCCCO`, for which the k2 on Acetylcholinesterase [1] is 6.1 10e-3 1/s. The Ratio at Acetylcholinesterase [2] was found to be 2. Further, the k-2 on Acetylcholinesterase [3] was 3 10e-3 1/s. For the same molecule, the kc in data set [4] is given as 4.9 10e-3 1/s. For the same molecule, the Ks at Acetylcholinesterase [5] amounted to 0.37 µM. On Acetylcholinesterase [6], this molecule gave a Ki of 130 nM.

For `CCCCNC(=O)OCCCCCCCCCCCCOC(=O)NCCCC`, the k2 at Acetylcholinesterase [1] was 5 10e-3 1/s. The Ratio at Acetylcholinesterase [2] was determined as 2.2. Besides, the k-2 on Acetylcholinesterase [3] was 2.2 10e-3 1/s. Besides, the kc in data set [4] is on record as 4.6 10e-3 1/s. The Ks at Acetylcholinesterase [5] was determined as 0.36 µM. In addition, the Ki at Acetylcholinesterase [6] came out at 160 nM.

For `CCCCNC(=O)OCCO`, the k2 at Acetylcholinesterase [1] is 7.5 10e-3 1/s. Moreover, the Ratio at Acetylcholinesterase [2] stood at 1.5. For the same molecule, the k-2 at Acetylcholinesterase [3] is 5 10e-3 1/s. In data set [4], the kc is reported as 3.1 10e-3 1/s. Further, at Acetylcholinesterase [5], the Ks was 2.3 µM.
